Experiments:
Type in all cases: in vivo
Lolium multiflorum Lam. = experiment: Test Example 4: herbicidal effect by soil treatment (symbol K); conditions: application herbicide amount 320 g/ha
Method in brief: (§1)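 Seeds were sown in sterilized diluvial soil, covered with about 1.5 cm of soil, and the soil surface was sprayed with a water-diluted emulsion of the compound at a predetermined rate. Plants grew in a greenhouse at 25° C. to 30° C.; effects were scored visually 3 weeks after application.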

[1] = tested on: Echinochloa oryzacola Vasing.; experiment: Test Example 2: herbicidal activity, application during weed generation in submerged conditions (symbol A); conditions: Table 23; application herbicide amount 320 g/ha; grade 0-5 by criteria of Test Example 1
Method in brief: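 Treatment timing was the one- to two-leaf stage, with diluted emulsifiable compound dropped onto the paddy water (depth 4 cm) over alluvial soil. All three species grew from a mixed sowing in a 25° C. to 30° C. greenhouse. Injury was judged by eye 3 weeks on.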

Cyperus difformis = experiment: Test Example 3: herbicidal effect by foliage application, Wagner pot (symbol E); conditions: application herbicide amount 320 g/ha
Method in brief: (§2)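 The compound, formulated as an emulsion and diluted with water to a predetermined rate, is applied uniformly to leaves of two-week-old seedlings growing in submerged alluvial soil at 25–30 °C. Rice is included. Each plant is assessed 3 weeks later using defined criteria.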

Avena fatua [2] = experiment: Test Example 4: herbicidal effect by soil treatment (symbol I); conditions: application herbicide amount 320 g/ha
Method in brief: as §1

Stellaria media = experiment: Test Example 5: herbicidal effect by foliage application, plastic box (symbol P); conditions: 320 g/ha, 3 weeks after application
Method in brief: (§3)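 Effect is rated 3 weeks after a foliar spray of water-diluted emulsion concentrate at a predetermined herbicide amount. Plants had grown 14 days in a 25° C. to 30° C. greenhouse from seed in sterilized diluvial soil.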

Amaranthus retroflexus = experiment: Test Example 4: herbicidal effect by soil treatment (symbol N); conditions: application herbicide amount 320 g/ha
Method in brief: as §1

Chenopodium album [3] = experiment: Test Example 4: herbicidal effect by soil treatment (symbol O); conditions: application herbicide amount 320 g/ha
Method in brief: as §1

Setaria viridis = experiment: Test Example 4: herbicidal effect by soil treatment (symbol G); conditions: application herbicide amount 320 g/ha
Method in brief: as §1

rice = experiment: Test Example 4: effect on crop by soil treatment (symbol b); conditions: application herbicide amount 320 g/ha
Method in brief: (§4)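 The test used sterilized diluvial soil. Seed was set down in spots and overlaid with about 1.5 cm of soil before growth in a greenhouse kept at 25° C. to 30° C.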

Leptochloa chinensis = experiment: Test Example 3: herbicidal effect by foliage application, Wagner pot (symbol D); conditions: application herbicide amount 320 g/ha
Method in brief: as §2

Avena fatua [4] = experiment: Test Example 5: herbicidal effect by foliage application, plastic box (symbol I); conditions: 320 g/ha, 3 weeks after application
Method in brief: as §3

Galium spurium = experiment: Test Example 4: herbicidal effect by soil treatment (symbol Q); conditions: application herbicide amount 320 g/ha
Method in brief: as §1

corn = experiment: Test Example 5: effect on crop by foliage application, plastic box (symbol c); conditions: 320 g/ha, 3 weeks after application
Method in brief: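 Plants were raised from seed in a greenhouse (25° C. to 30° C.) after sowing in a plastic box of sterilized diluvial soil.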

Abutilon theophrasti = experiment: Test Example 4: herbicidal effect by soil treatment (symbol M); conditions: application herbicide amount 320 g/ha
Method in brief: as §1

Alopecurus myosuroides = experiment: Test Example 4: herbicidal effect by soil treatment (symbol J); conditions: application herbicide amount 320 g/ha
Method in brief: as §1

[5] = tested on: directly sowed rice plant; experiment: Test Example 3: effect on crop by foliage application, Wagner pot (symbol b); conditions: application herbicide amount 320 g/ha
Method in brief: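 Plants are raised from seed in flooded paddy conditions: water stands 0.1–0.5 cm over alluvial soil, and the pot is kept in a greenhouse at 25–30 °C. Species sown are barnyardgrass (E. crus-galli var. crus-galli), Leptochloa chinensis, Cyperus difformis and rice.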

wheat = experiment: Test Example 4: effect on crop by soil treatment (symbol e); conditions: application herbicide amount 320 g/ha
Method in brief: as §4

Chenopodium album [6] = experiment: Test Example 5: herbicidal effect by foliage application, plastic box (symbol O); conditions: 320 g/ha, 3 weeks after application
Method in brief: as §3

CCc1cc(Br)cc(C)c1C1=C(O)CC(CC(C)=O)C1=O (stereo not drawn) [7-003]
Herbicidal effect grade, K: Lolium multiflorum Lam. (Lolium multiflorum Lam.): 5 (Herbicidal ratio of 90% or more (almost completely withered)) | Herbicidal effect grade, A: Echinochloa oryzacola Vasing. [1]: 2 (Herbicidal ratio of 20% or higher and lower than 40%) | herbicidal effect on E, grade 0-5 (Cyperus difformis): 0 (Herbicidal ratio of 5% or lower (almost no effect)) | Herbicidal effect grade, I: Avena fatua (Avena fatua [2]): 4 (Herbicidal ratio of 70% or higher and lower than 90%) | P: Stellaria media, herbicidal effect (criteria of Test Example 1) (Stellaria media): 0 (Herbicidal ratio of 5% or lower (almost no effect)) | Herbicidal effect grade, N: Amaranthus retroflexus (Amaranthus retroflexus): 0 (Herbicidal ratio of 5% or lower (almost no effect)) | Herbicidal effect grade, O: Chenopodium album (Chenopodium album [3]): 0 (Herbicidal ratio of 5% or lower (almost no effect)) | Herbicidal effect grade, G: Setaria viridis (Setaria viridis): 5 (Herbicidal ratio of 90% or more (almost completely withered)) | Effect on crop grade, b: directly sowed rice plant (rice): 5 (Herbicidal ratio of 90% or more (almost completely withered)) | herbicidal effect on D (Leptochloa chinensis), grade 0-5 (Leptochloa chinensis): 5 (Herbicidal ratio of 90% or more (almost completely withered)) | I: Avena fatua, herbicidal effect (criteria of Test Example 1) (Avena fatua [4]): 5 (Herbicidal ratio of 90% or more (almost completely withered)) | Herbicidal effect grade, Q: Galium spurium (Galium spurium): 0 (Herbicidal ratio of 5% or lower (almost no effect)) | c: corn, effect on crop (criteria of Test Example 1) (corn): 5 (Herbicidal ratio of 90% or more (almost completely withered)) | Herbicidal effect grade, M: Abutilon theophrasti (Abutilon theophrasti): 0 (Herbicidal ratio of 5% or lower (almost no effect)) | Herbicidal effect grade, J: Alopecurus myosuroides (Alopecurus myosuroides): 5 (Herbicidal ratio of 90% or more (almost completely withered)) | effect on crop b (directly sowed rice plant), grade 0-5 [5]: 5 (Herbicidal ratio of 90% or more (almost completely withered)) | Effect on crop grade, e: wheat (wheat): 0 (Herbicidal ratio of 5% or lower (almost no effect)) | O: Chenopodium album, herbicidal effect (criteria of Test Example 1) (Chenopodium album [6]): 0 (Herbicidal ratio of 5% or lower (almost no effect))

CON=C(C)CC1CC(O)=C(c2c(C)cc(Oc3ccccc3)cc2C)C1=O (stereo not drawn) [6-052]
K: Lolium multiflorum Lam., herbicidal effect grade (Lolium multiflorum Lam.): 0 (Herbicidal ratio of 5% or lower (almost no effect)) | Herbicidal effect grade, A: Echinochloa oryzacola Vasing. [1]: 3 (Herbicidal ratio of 40% or higher and lower than 70%) | herbicidal effect on E, grade 0-5 (Cyperus difformis): 3 (Herbicidal ratio of 40% or higher and lower than 70%) | I: Avena fatua, herbicidal effect grade (Avena fatua [2]): 0 (Herbicidal ratio of 5% or lower (almost no effect)) | P: Stellaria media, herbicidal effect grade (Stellaria media): 0 (Herbicidal ratio of 5% or lower (almost no effect)) | N: Amaranthus retroflexus, herbicidal effect grade (Amaranthus retroflexus): 0 (Herbicidal ratio of 5% or lower (almost no effect)) | O: Chenopodium album, herbicidal effect grade (Chenopodium album [3]): 0 (Herbicidal ratio of 5% or lower (almost no effect)) | G: Setaria viridis, herbicidal effect grade (Setaria viridis): 3 (Herbicidal ratio of 40% or higher and lower than 70%) | b: directly sowed rice plant, effect on crop grade (rice): 1 (Herbicidal ratio of 5% or higher and lower than 20%) | herbicidal effect on D (Leptochloa chinensis), grade 0-5 (Leptochloa chinensis): 5 (Herbicidal ratio of 90% or more (almost completely withered)) | I: Avena fatua, herbicidal effect grade (Avena fatua [4]): 2 (Herbicidal ratio of 20% or higher and lower than 40%) | Q: Galium spurium, herbicidal effect grade (Galium spurium): 0 (Herbicidal ratio of 5% or lower (almost no effect)) | c: corn, effect on crop grade (corn): 3 (Herbicidal ratio of 40% or higher and lower than 70%) | M: Abutilon theophrasti, herbicidal effect grade (Abutilon theophrasti): 0 (Herbicidal ratio of 5% or lower (almost no effect)) | J: Alopecurus myosuroides, herbicidal effect grade (Alopecurus myosuroides): 0 (Herbicidal ratio of 5% or lower (almost no effect)) | effect on crop b (directly sowed rice plant), grade 0-5 [5]: 5 (Herbicidal ratio of 90% or more (almost completely withered)) | e: wheat, effect on crop grade (wheat): 0 (Herbicidal ratio of 5% or lower (almost no effect)) | O: Chenopodium album, herbicidal effect grade (Chenopodium album [6]): 0 (Herbicidal ratio of 5% or lower (almost no effect))

CON=C(C)CC1CC(O)=C(c2c(C)cc(-n3cncn3)cc2C)C1=O (stereo not drawn) [6-074]
K: Lolium multiflorum Lam., herbicidal effect grade (Lolium multiflorum Lam.): 0 (Herbicidal ratio of 5% or lower (almost no effect)) | Herbicidal effect grade, A: Echinochloa oryzacola Vasing. [1]: 1 (Herbicidal ratio of 5% or higher and lower than 20%) | herbicidal effect on E, grade 0-5 (Cyperus difformis): 2 (Herbicidal ratio of 20% or higher and lower than 40%) | I: Avena fatua, herbicidal effect grade (Avena fatua [2]): 0 (Herbicidal ratio of 5% or lower (almost no effect)) | P: Stellaria media, herbicidal effect (criteria of Test Example 1) (Stellaria media): 0 (Herbicidal ratio of 5% or lower (almost no effect)) | N: Amaranthus retroflexus, herbicidal effect grade (Amaranthus retroflexus): 0 (Herbicidal ratio of 5% or lower (almost no effect)) | O: Chenopodium album, herbicidal effect grade (Chenopodium album [3]): 0 (Herbicidal ratio of 5% or lower (almost no effect)) | G: Setaria viridis, herbicidal effect grade (Setaria viridis): 2 (Herbicidal ratio of 20% or higher and lower than 40%) | b: directly sowed rice plant, effect on crop grade (rice): 3 (Herbicidal ratio of 40% or higher and lower than 70%) | herbicidal effect on D (Leptochloa chinensis), grade 0-5 (Leptochloa chinensis): 5 (Herbicidal ratio of 90% or more (almost completely withered)) | I: Avena fatua, herbicidal effect (criteria of Test Example 1) (Avena fatua [4]): 1 (Herbicidal ratio of 5% or higher and lower than 20%) | Q: Galium spurium, herbicidal effect grade (Galium spurium): 0 (Herbicidal ratio of 5% or lower (almost no effect)) | c: corn, effect on crop (criteria of Test Example 1) (corn): 0 (Herbicidal ratio of 5% or lower (almost no effect)) | M: Abutilon theophrasti, herbicidal effect grade (Abutilon theophrasti): 0 (Herbicidal ratio of 5% or lower (almost no effect)) | J: Alopecurus myosuroides, herbicidal effect grade (Alopecurus myosuroides): 0 (Herbicidal ratio of 5% or lower (almost no effect)) | effect on crop b (directly sowed rice plant), grade 0-5 [5]: 1 (Herbicidal ratio of 5% or higher and lower than 20%) | e: wheat, effect on crop grade (wheat): 0 (Herbicidal ratio of 5% or lower (almost no effect)) | O: Chenopodium album, herbicidal effect (criteria of Test Example 1) (Chenopodium album [6]): 0 (Herbicidal ratio of 5% or lower (almost no effect))

CC(=O)CC1CC(O)=C(c2c(C)cc(-c3ccccn3)cc2C)C1=O (stereo not drawn) [7-012]
Herbicidal effect grade, K: Lolium multiflorum Lam. (Lolium multiflorum Lam.): 2 (Herbicidal ratio of 20% or higher and lower than 40%) | Herbicidal effect grade, A: Echinochloa oryzacola Vasing. [1]: 3 (Herbicidal ratio of 40% or higher and lower than 70%) | herbicidal effect on E, grade 0-5 (Cyperus difformis): 4 (Herbicidal ratio of 70% or higher and lower than 90%) | Herbicidal effect grade, I: Avena fatua (Avena fatua [2]): 0 (Herbicidal ratio of 5% or lower (almost no effect)) | P: Stellaria media, herbicidal effect (criteria of Test Example 1) (Stellaria media): 3 (Herbicidal ratio of 40% or higher and lower than 70%) | Herbicidal effect grade, N: Amaranthus retroflexus (Amaranthus retroflexus): 0 (Herbicidal ratio of 5% or lower (almost no effect)) | Herbicidal effect grade, O: Chenopodium album (Chenopodium album [3]): 0 (Herbicidal ratio of 5% or lower (almost no effect)) | Herbicidal effect grade, G: Setaria viridis (Setaria viridis): 5 (Herbicidal ratio of 90% or more (almost completely withered)) | Effect on crop grade, b: directly sowed rice plant (rice): 5 (Herbicidal ratio of 90% or more (almost completely withered)) | herbicidal effect on D (Leptochloa chinensis), grade 0-5 (Leptochloa chinensis): 5 (Herbicidal ratio of 90% or more (almost completely withered)) | I: Avena fatua, herbicidal effect (criteria of Test Example 1) (Avena fatua [4]): 1 (Herbicidal ratio of 5% or higher and lower than 20%) | Herbicidal effect grade, Q: Galium spurium (Galium spurium): 0 (Herbicidal ratio of 5% or lower (almost no effect)) | c: corn, effect on crop (criteria of Test Example 1) (corn): 3 (Herbicidal ratio of 40% or higher and lower than 70%) | Herbicidal effect grade, M: Abutilon theophrasti (Abutilon theophrasti): 0 (Herbicidal ratio of 5% or lower (almost no effect)) | Herbicidal effect grade, J: Alopecurus myosuroides (Alopecurus myosuroides): 2 (Herbicidal ratio of 20% or higher and lower than 40%) | effect on crop b (directly sowed rice plant), grade 0-5 [5]: 5 (Herbicidal ratio of 90% or more (almost completely withered)) | Effect on crop grade, e: wheat (wheat): 0 (Herbicidal ratio of 5% or lower (almost no effect)) | O: Chenopodium album, herbicidal effect (criteria of Test Example 1) (Chenopodium album [6]): 3 (Herbicidal ratio of 40% or higher and lower than 70%)
